Ends that are not written are not given here.
What was measured:
[1] = PK after single intravenous injection of Peptide 1 in male rats; design: species or system male Wistar (CRL: WI(Han)) rats; conditions: rat, in vivo; for clearance / half-life / Vd: iv
Description: (§1) Peptide 1 in blood samples collected from animals used in the studies (rat and dog) has been measured by an LC-MS/MS method. Analysis of samples collected in the pharmacokinetic study in rats was performed prior to validation of the method. Prior to analysis of samples from the GLP toxicology studies, the method was validated according to GLP to ensure that it is selective, accurate, reproducible, and able to produce reliable results. The method was validated over the range from 0.075 to 25 μg/mL Peptide 1.
The objective of the study was to assess the pharmacokinetic profile of Peptide 1 when administered once by intravenous injection to male Wistar (CRL: WI(Han)) rats at 0.1, 1.0 and 10.0 mg/kg. The number of rats per group was respectively 6, 6 and 8. Blood samples were collected from 3 animals per group at 2, 5, 10, 20, 40 and 60 minutes after dosing; for the animals receiving 10.0 mg/kg, additional samples were taken from 2 animals at 90 and 120 minutes after dosing. The pharmacokinetics were characterised using mean plasma concentration vs. time data. The pharmacokinetic parameters were estimated using Phoenix WinNonlin Version 6.3 pharmacokinetic software.
[…] 26 plasma samples (samples in Group 1 (0.1 mg/kg) obtained 2 minutes post dosing, in Group 2 (1 mg/kg) 2 to 10 minutes post dosing and in Group 3 (10 mg/kg) 2 to 40 minutes post dosing) had concentrations of Peptide 1 above the upper limit of quantification for the bioanalytical method. As a consequence, plasma concentration of Peptide 1 was extrapolated. Plasma samples obtained 60 minutes post dosing in Group 1 had plasma concentration of Peptide 1 below the limit of quantification.

[2] = 14-day repeat dose IV toxicity study with toxicokinetic evaluation on Day 1 and Day 14 in rats; assay type: in vivo, Wistar rats; conditions: rat; for C0 / AUC(0-inf) / half-life / clearance / Vd: in vivo
Description: as §1
In the 14-day intravenous toxicity study in Wistar rats (see study description below), samples were collected from 3 male and 3 female animals per group dosed at 0 (Control), 1, 3 or 10 mg/kg/day at 2, 5, 10, 20 and 40 minutes after dosing on Days 1 and 14. Samples were analysed for levels of Peptide 1.

[3] = single IV 0.1 mg/kg, initial elimination phase
[4] = single IV 1.0 mg/kg, initial elimination phase
[5] = single IV 10 mg/kg, initial elimination phase
[6] = iv, 1 mg/kg/day, IV 1.0 mg/kg/day, female, Day 1
[7] = iv, 1 mg/kg/day, IV 1.0 mg/kg/day, female, Day 14
[8] = iv, 1 mg/kg/day, IV 1.0 mg/kg/day, male, Day 1
[9] = iv, 1 mg/kg/day, IV 1.0 mg/kg/day, male, Day 14
[10] = iv, 3 mg/kg/day, IV 3.0 mg/kg/day, female, Day 1
[11] = iv, 3 mg/kg/day, IV 3.0 mg/kg/day, female, Day 14
[12] = iv, 3 mg/kg/day, IV 3.0 mg/kg/day, male, Day 1
[13] = iv, 3 mg/kg/day, IV 3.0 mg/kg/day, male, Day 14
[14] = iv, 10 mg/kg/day, IV 10 mg/kg/day, female, Day 1
[15] = iv, 10 mg/kg/day, IV 10 mg/kg/day, female, Day 14
[16] = iv, 10 mg/kg/day, IV 10 mg/kg/day, male, Day 1
[17] = iv, 10 mg/kg/day, IV 10 mg/kg/day, male, Day 14

AMVSEFLKQAWFIENEEQEYVQTLKSSKGGPGSAVSPYPTFNPSSDV-NH2 [Peptide 1]
clearance ([1]; 0.1 mg/kg, single IV 0.1 mg/kg, initial elimination phase, read-out: CL): 10 mL/min/kg
half-life ([1]; 0.1 mg/kg, single IV 0.1 mg/kg, initial elimination phase, read-out: T½): 3.49 min
Vd ([1]; 0.1 mg/kg, single IV 0.1 mg/kg, initial elimination phase, read-out: Vz): 0.0505 L/kg
clearance ([1]; 0.1 mg/kg, single IV 0.1 mg/kg, terminal elimination phase, read-out: CL): 9.66 mL/min/kg
half-life ([1]; 0.1 mg/kg, single IV 0.1 mg/kg, terminal elimination phase, read-out: T½): 18.8 min
Vd ([1]; 0.1 mg/kg, single IV 0.1 mg/kg, terminal elimination phase, read-out: Vz): 0.261 L/kg
clearance ([1]; 1 mg/kg, single IV 1.0 mg/kg, initial elimination phase, read-out: CL): 8.08 mL/min/kg
half-life ([1]; 1 mg/kg, single IV 1.0 mg/kg, initial elimination phase, read-out: T½): 3.34 min
Vd ([1]; 1 mg/kg, single IV 1.0 mg/kg, initial elimination phase, read-out: Vz): 0.0389 L/kg
clearance ([1]; 1 mg/kg, single IV 1.0 mg/kg, terminal elimination phase, read-out: CL): 8.05 mL/min/kg
half-life ([1]; 1 mg/kg, single IV 1.0 mg/kg, terminal elimination phase, read-out: T½): 10 min
Vd ([1]; 1 mg/kg, single IV 1.0 mg/kg, terminal elimination phase, read-out: Vz): 0.116 L/kg
clearance ([1]; 10 mg/kg, single IV 10 mg/kg, initial elimination phase, read-out: CL): 11.1 mL/min/kg
half-life ([1]; 10 mg/kg, single IV 10 mg/kg, initial elimination phase, read-out: T½): 7.64 min
Vd ([1]; 10 mg/kg, single IV 10 mg/kg, initial elimination phase, read-out: Vz): 0.122 L/kg
clearance ([1]; 10 mg/kg, single IV 10 mg/kg, terminal elimination phase, read-out: CL): 11.1 mL/min/kg
half-life ([1]; 10 mg/kg, single IV 10 mg/kg, terminal elimination phase, read-out: T½): 10.2 min
Vd ([1]; 10 mg/kg, single IV 10 mg/kg, terminal elimination phase, read-out: Vz): 0.162 L/kg
clearance ([1]; single IV, both phases, range over 0.1-10 mg/kg, read-out: clearance): 8 to 11 mL/min/kg
half-life ([1]; single IV, initial phase, range over 0.1-10 mg/kg, read-out: half-life): 3 to 8 min
Vd ([1]; single IV, initial phase, range over 0.1-10 mg/kg, read-out: volume of distribution): 0.039 to 0.122 L/kg
half-life ([1]; single IV, terminal elimination phase, range over 0.1-10 mg/kg, read-out: half-life): 10 to 19 min
Vd ([1]; single IV, terminal phase, range over 0.1-10 mg/kg, read-out: volume of distribution): 0.116 to 0.261 L/kg
AUC(0-t) [1, 3]: 165 ng·h/mL
C0 [1, 3]: 1790 ng/mL
AUC(0-inf) ([1]; single IV 0.1 mg/kg, terminal elimination phase): 173 ng·h/mL
AUC(0-t) [1, 4]: 2070 ng·h/mL
C0 [1, 4]: 32500 ng/mL
AUC(0-inf) ([1]; single IV 1.0 mg/kg, terminal elimination phase): 2070 ng·h/mL
AUC(0-t) [1, 5]: 14800 ng·h/mL
C0 [1, 5]: 68900 ng/mL
AUC(0-inf) ([1]; single IV 10 mg/kg, terminal elimination phase): 15000 ng·h/mL
exposure (C(0) and AUCinf) versus dose ([2]; from 1 mg/kg to 10 mg/kg): increase proportional to dose level
C0 ([2]; 1 mg/kg, Group 2 (1 mg/kg), range over sexes and Days 1 and 14): 9960 to 11900 ng/mL
AUC(0-inf) ([2]; 1 mg/kg, Group 2 (1 mg/kg), range over sexes and Days 1 and 14, read-out: AUCinf): 918 to 1030 ng·h/mL
C0 ([2]; 3 mg/kg, Group 3 (3 mg/kg), range over sexes and Days 1 and 14): 23000 to 41900 ng/mL
AUC(0-inf) ([2]; 3 mg/kg, Group 3 (3 mg/kg), range over sexes and Days 1 and 14, read-out: AUCinf): 2280 to 3380 ng·h/mL
C0 ([2]; 10 mg/kg, Group 4 (10 mg/kg), range over sexes and Days 1 and 14): 92300 to 138000 ng/mL
AUC(0-inf) ([2]; 10 mg/kg, Group 4 (10 mg/kg), range over sexes and Days 1 and 14, read-out: AUCinf): 9130 to 10100 ng·h/mL
half-life ([2]; all groups, read-out: elimination half-life): 7 to 8 min
C0 [2, 6]: 11900 ng/mL
clearance [2, 6]: 18.1 mL/min/kg
AUC(0-inf) ([2]; iv, 1 mg/kg/day, IV 1.0 mg/kg/day, female, Day 1, read-out: AUC0-∞ (converted)): 918 ng·h/mL
half-life ([2]; iv, 1 mg/kg/day, IV 1.0 mg/kg/day, female, Day 1, read-out: T1/2): 7.33 min
Vd ([2]; iv, 1 mg/kg/day, IV 1.0 mg/kg/day, female, Day 1, read-out: Vz): 0.192 L/kg
C0 [2, 7]: 10900 ng/mL
clearance [2, 7]: 16.2 mL/min/kg
AUC(0-inf) ([2]; iv, 1 mg/kg/day, IV 1.0 mg/kg/day, female, Day 14, read-out: AUC0-∞ (converted)): 1030 ng·h/mL
half-life ([2]; iv, 1 mg/kg/day, IV 1.0 mg/kg/day, female, Day 14, read-out: T1/2): 7.11 min
Vd ([2]; iv, 1 mg/kg/day, IV 1.0 mg/kg/day, female, Day 14, read-out: Vz): 0.167 L/kg
C0 [2, 8]: 9960 ng/mL
clearance [2, 8]: 18 mL/min/kg
AUC(0-inf) ([2]; iv, 1 mg/kg/day, IV 1.0 mg/kg/day, male, Day 1, read-out: AUC0-∞ (converted)): 927 ng·h/mL
half-life ([2]; iv, 1 mg/kg/day, IV 1.0 mg/kg/day, male, Day 1, read-out: T1/2): 8.4 min
Vd ([2]; iv, 1 mg/kg/day, IV 1.0 mg/kg/day, male, Day 1, read-out: Vz): 0.218 L/kg
C0 [2, 9]: 10300 ng/mL
clearance [2, 9]: 17.2 mL/min/kg
AUC(0-inf) ([2]; iv, 1 mg/kg/day, IV 1.0 mg/kg/day, male, Day 14, read-out: AUC0-∞ (converted)): 967 ng·h/mL
half-life ([2]; iv, 1 mg/kg/day, IV 1.0 mg/kg/day, male, Day 14, read-out: T1/2): 7.66 min
Vd ([2]; iv, 1 mg/kg/day, IV 1.0 mg/kg/day, male, Day 14, read-out: Vz): 0.19 L/kg
C0 [2, 10]: 30600 ng/mL
clearance [2, 10]: 17.4 mL/min/kg
AUC(0-inf) ([2]; iv, 3 mg/kg/day, IV 3.0 mg/kg/day, female, Day 1, read-out: AUC0-∞ (converted)): 2870 ng·h/mL
half-life ([2]; iv, 3 mg/kg/day, IV 3.0 mg/kg/day, female, Day 1, read-out: T1/2): 8 min
Vd ([2]; iv, 3 mg/kg/day, IV 3.0 mg/kg/day, female, Day 1, read-out: Vz): 0.201 L/kg
C0 [2, 11]: 41900 ng/mL
clearance [2, 11]: 14.8 mL/min/kg
AUC(0-inf) ([2]; iv, 3 mg/kg/day, IV 3.0 mg/kg/day, female, Day 14, read-out: AUC0-∞ (converted)): 3380 ng·h/mL
half-life ([2]; iv, 3 mg/kg/day, IV 3.0 mg/kg/day, female, Day 14, read-out: T1/2): 6.85 min
Vd ([2]; iv, 3 mg/kg/day, IV 3.0 mg/kg/day, female, Day 14, read-out: Vz): 0.146 L/kg
C0 [2, 12]: 23000 ng/mL
clearance [2, 12]: 21.9 mL/min/kg
AUC(0-inf) ([2]; iv, 3 mg/kg/day, IV 3.0 mg/kg/day, male, Day 1, read-out: AUC0-∞ (converted)): 2280 ng·h/mL
half-life ([2]; iv, 3 mg/kg/day, IV 3.0 mg/kg/day, male, Day 1, read-out: T1/2): 7 min
Vd ([2]; iv, 3 mg/kg/day, IV 3.0 mg/kg/day, male, Day 1, read-out: Vz): 0.221 L/kg
C0 [2, 13]: 36700 ng/mL
clearance [2, 13]: 18.7 mL/min/kg
AUC(0-inf) ([2]; iv, 3 mg/kg/day, IV 3.0 mg/kg/day, male, Day 14, read-out: AUC0-∞ (converted)): 2680 ng·h/mL
half-life ([2]; iv, 3 mg/kg/day, IV 3.0 mg/kg/day, male, Day 14, read-out: T1/2): 6.67 min
Vd ([2]; iv, 3 mg/kg/day, IV 3.0 mg/kg/day, male, Day 14, read-out: Vz): 0.18 L/kg
C0 [2, 14]: 127000 ng/mL
clearance [2, 14]: 17.4 mL/min/kg
AUC(0-inf) ([2]; iv, 10 mg/kg/day, IV 10 mg/kg/day, female, Day 1, read-out: AUC0-∞ (converted)): 9570 ng·h/mL
half-life ([2]; iv, 10 mg/kg/day, IV 10 mg/kg/day, female, Day 1, read-out: T1/2): 7.16 min
Vd ([2]; iv, 10 mg/kg/day, IV 10 mg/kg/day, female, Day 1, read-out: Vz): 0.18 L/kg
C0 [2, 15]: 138000 ng/mL
clearance [2, 15]: 16.5 mL/min/kg
AUC(0-inf) ([2]; iv, 10 mg/kg/day, IV 10 mg/kg/day, female, Day 14, read-out: AUC0-∞ (converted)): 10100 ng·h/mL
half-life ([2]; iv, 10 mg/kg/day, IV 10 mg/kg/day, female, Day 14, read-out: T1/2): 7.04 min
Vd ([2]; iv, 10 mg/kg/day, IV 10 mg/kg/day, female, Day 14, read-out: Vz): 0.168 L/kg
C0 [2, 16]: 104000 ng/mL
clearance [2, 16]: 18.1 mL/min/kg
AUC(0-inf) ([2]; iv, 10 mg/kg/day, IV 10 mg/kg/day, male, Day 1, read-out: AUC0-∞ (converted)): 9200 ng·h/mL
half-life ([2]; iv, 10 mg/kg/day, IV 10 mg/kg/day, male, Day 1, read-out: T1/2): 7.8 min
Vd ([2]; iv, 10 mg/kg/day, IV 10 mg/kg/day, male, Day 1, read-out: Vz): 0.204 L/kg
C0 [2, 17]: 92300 ng/mL
clearance [2, 17]: 18.2 mL/min/kg
AUC(0-inf) ([2]; iv, 10 mg/kg/day, IV 10 mg/kg/day, male, Day 14, read-out: AUC0-∞ (converted)): 9130 ng·h/mL
half-life ([2]; iv, 10 mg/kg/day, IV 10 mg/kg/day, male, Day 14, read-out: T1/2): 7.31 min
Vd ([2]; iv, 10 mg/kg/day, IV 10 mg/kg/day, male, Day 14, read-out: Vz): 0.192 L/kg
